Measurements as given in the supplement of paper PMC10307832.

Assays:
Assay in all cases: relative viability (nuclei count vs DMSO), 5 days (fraction); higher = more cells survive
SGI-1776 + Trametinib = compound: CN1CCC(CNc2ccc3ncc(-c4cccc(OC(F)(F)F)c4)n3n2)CC1 [SGI-1776] + CC(=O)Nc1cccc(-n2c(=O)n(C3CC3)c(=O)c3c(Nc4ccc(I)cc4F)n(C)c(=O)c(C)c32)c1 [Trametinib] (partner 0.02 µM)
Method in brief: (§1)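 Lung cancer cell lines in 1536-well plates were dosed by pin tool the day after seeding, either with one drug alone or with a fixed anchor-drug dose plus five library-drug doses (not always all listed) in √10 steps. After 5 days, cells were fixed and their nuclei stained in one step (final 0.05% Triton X-100, 1% formaldehyde, 1 ug/ml Hoechst), then counted on 4× images. Relative viability is the nuclei count in treated wells divided by that in vehicle wells. Values are medians of duplicate plates.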

[1] = compound: C1COCCN1C2=NC(=NC3=C2OC4=C3C=CC=N4)C5=CC(=CC=C5)NC(=O)C6=CN=C(C=C6)N + N=C(N)NC(=N)NCCc1ccccc1 [Phenformin] (partner 250 µM)
Method in brief: as §1

[2] = compound: C1COCCN1C2=NC(=NC3=C2OC4=C3C=CC=N4)C5=CC(=CC=C5)NC(=O)C6=CN=C(C=C6)N + CC1(C)CCC(c2ccc(Cl)cc2)=C(CN2CCN(c3ccc(C(=O)NS(=O)(=O)c4ccc(N[C@H](CCN5CCOCC5)CSc5ccccc5)c(S(=O)(=O)C(F)(F)F)c4)cc3)CC2)C1 [Navitoclax] (partner 0.5 µM)
Method in brief: as §1

SGI-1776 + Luminespib = compound: CN1CCC(CNc2ccc3ncc(-c4cccc(OC(F)(F)F)c4)n3n2)CC1 [SGI-1776] + CCNC(=O)c1noc(-c2cc(C(C)C)c(O)cc2O)c1-c1ccc(CN2CCOCC2)cc1 [Luminespib] (partner 0.01 µM)
Method in brief: as §1

Cell Line	relative viability (SGI-1776 + Trametinib; first compound 0.08 µM)	relative viability (SGI-1776 + Trametinib; first compound 0.8 µM)	relative viability (SGI-1776 + Trametinib; first compound 2.53 µM)	relative viability (SGI-1776 + Trametinib; first compound 8 µM)	relative viability ([1]; first compound 0.02 µM)	relative viability ([1]; first compound 0.06325 µM)	relative viability ([1]; first compound 0.2 µM)	relative viability ([1]; first compound 0.6325 µM)	relative viability ([1]; first compound 2 µM)	relative viability ([2]; first compound 0.02 µM)	relative viability ([2]; first compound 0.06325 µM)	relative viability ([2]; first compound 0.2 µM)	relative viability ([2]; first compound 0.6325 µM)	relative viability ([2]; first compound 2 µM)	relative viability (SGI-1776 + Luminespib; first compound 0.08 µM)	relative viability (SGI-1776 + Luminespib; first compound 0.8 µM)	relative viability (SGI-1776 + Luminespib; first compound 2.53 µM)	relative viability (SGI-1776 + Luminespib; first compound 8 µM)
NCI-H2085	0.665	0.612	0.511	0.453	0.686	0.753	0.678	0.629	0.398	1.15	1.12	1.05	1.1	0.602	0.481	0.44	0.513	0.333
PC-14	0.796	0.582	0.384	0.0529	0.478	0.36	0.397	0.446	0.268	1.09	1.06	1.02	1.01	0.465	0.154	0.138	0.126	0.129
NCI-H1355	0.444	0.408	0.408	0.41	0.449	0.491	0.461	0.433	0.434	0.924	1.08	0.909	0.841	0.9	0.68	0.625	0.607	0.551
NCI-H1650	0.543	0.521	0.504	0.371	0.358	0.402	0.413	0.355	0.237	1.27	1.34	1.06	1.32	0.539	0.211	0.198	0.195	0.172
NCI-H727	0.454	0.38	0.391	0.372	0.441	0.629	0.502	0.469	0.458	0.351	0.501	0.343	0.357	0.337	0.408	0.337	0.311	0.253
NCI-H1755	0.802	0.741	0.762	0.651	0.606	0.652	0.644	0.336	0.469	0.987	1.13	1.05	0.861	0.561	0.482	0.515	0.408	0.326
NCI-H1651	0.806	0.852	0.843	0.746	0.333	0.302	0.315	0.321	0.182	1.33	1.18	0.984	1.15	0.614	0.823	0.977	0.784	0.642
NCI-H647	0.621	0.441	0.56	0.323	0.574	0.768	0.466	0.519	0.195	1.18	1.11	1.22	1.16	0.704	0.263	0.198	0.192	0.144
NCI-H1944	0.389	0.408	0.426	0.378	0.217	0.244	0.182	0.194	0.142	1.03	1.04	0.957	0.841	0.858	0.871	0.67	0.669	0.618
LK-2	0.778	0.69	0.63	0.708	0.538	0.551	0.249	0.2	0.252	0.953	0.845	0.869	0.714	0.54	0.17	0.188	0.257	0.159
HCC-15	0.262	0.376	0.332	0.338	0.546	0.528	0.462	0.388	0.25	0.678	0.786	0.684	0.605	0.452	0.353	0.34	0.325	0.186
NCI-H838	0.519	0.534	0.414	0.385	0.514	0.687	0.485	0.414	0.198	0.92	1.14	1.09	0.946	0.437	0.231	0.331	0.349	0.254
HOP-62	0.384	0.359	0.437	0.367	0.762	0.874	0.686	0.546	0.294	1.05	1.32	1.27	1.01	0.735	0.835	0.93	0.941	0.89
NCI-H322M	0.524	0.506	0.485	0.487	0.781	0.786	0.683	0.735	0.508	1.14	1.19	1.21	0.924	1.12	0.999	0.901	0.881	0.635
NCI-H1395	1.16	0.984	0.951	0.887	0.396	0.451	0.461	0.415	0.384	0.919	1.07	1.03	1.25	1.19	0.768	0.772	0.573	0.414
NCI-H1734	0.686	0.742	0.786	0.603	0.372	0.387	0.371	0.338	0.251	0.838	0.99	0.87	0.821	0.441	0.193	0.201	0.19	0.163
EKVX	0.386	0.342	0.344	0.31	0.223	0.21	0.207	0.216	0.181	1.17	0.939	0.944	0.805	0.684	0.868	0.937	0.875	0.863
